Data published in the supplement of paper PMC10307832.

How the values were obtained:
Experiment in all cases: relative viability (nuclei count vs DMSO), 5 days (fraction); higher = more cells survive
Adavosertib + Lapatinib = compound: C=CCn1c(=O)c2cnc(Nc3ccc(N4CCN(C)CC4)cc3)nc2n1-c1cccc(C(C)(C)O)n1 [Adavosertib] + CS(=O)(=O)CCNCc1ccc(-c2ccc3ncnc(Nc4ccc(OCc5cccc(F)c5)c(Cl)c4)c3c2)o1 [Lapatinib] (partner 2 µM)
Method in brief: (§1)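 For relative viability, nuclei counts in treated wells were divided by those in vehicle wells. Lung cancer cell lines had been pin-tool dosed in 1536-well plates the day after seeding and cultured for 5 days, then fixed and stained in one step (final 0.05% Triton X-100, 1% formaldehyde, 1 ug/ml Hoechst) and imaged at 4×. Doses were one drug alone or a fixed anchor-drug dose plus five library-drug doses (not always all listed) in √10 steps, and values are duplicate-plate medians.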

Nelarabine + Luminespib = compound: COc1nc(N)nc2c1ncn2[C@@H]1O[C@H](CO)[C@@H](O)[C@@H]1O [Nelarabine] + CCNC(=O)c1noc(-c2cc(C(C)C)c(O)cc2O)c1-c1ccc(CN2CCOCC2)cc1 [Luminespib] (partner 0.01 µM)
Method in brief: as §1

Nelarabine + Phenformin = compound: COc1nc(N)nc2c1ncn2[C@@H]1O[C@H](CO)[C@@H](O)[C@@H]1O [Nelarabine] + N=C(N)NC(=N)NCCc1ccccc1 [Phenformin] (partner 250 µM)
Method in brief: as §1

Nelarabine + Palbociclib = compound: COc1nc(N)nc2c1ncn2[C@@H]1O[C@H](CO)[C@@H](O)[C@@H]1O [Nelarabine] + CC(=O)c1c(C)c2cnc(Nc3ccc(N4CCNCC4)cn3)nc2n(C2CCCC2)c1=O [Palbociclib] (partner 0.5 µM)
Method in brief: as §1

Cell Line | relative viability (Adavosertib + Lapatinib; first compound 0.01 µM) | relative viability (Adavosertib + Lapatinib; first compound 0.03162 µM) | relative viability (Adavosertib + Lapatinib; first compound 0.1 µM) | relative viability (Adavosertib + Lapatinib; first compound 0.3162 µM) | relative viability (Nelarabine + Luminespib; first compound 0.01 µM) | relative viability (Nelarabine + Luminespib; first compound 0.03162 µM) | relative viability (Nelarabine + Luminespib; first compound 0.3162 µM) | relative viability (Nelarabine + Luminespib; first compound 1 µM) | relative viability (Nelarabine + Phenformin; first compound 0.01 µM) | relative viability (Nelarabine + Phenformin; first compound 0.03162 µM) | relative viability (Nelarabine + Phenformin; first compound 0.3162 µM) | relative viability (Nelarabine + Phenformin; first compound 1 µM) | relative viability (Nelarabine + Palbociclib; first compound 0.01 µM) | relative viability (Nelarabine + Palbociclib; first compound 0.03162 µM) | relative viability (Nelarabine + Palbociclib; first compound 0.1 µM) | relative viability (Nelarabine + Palbociclib; first compound 0.3162 µM) | relative viability (Nelarabine + Palbociclib; first compound 1 µM) | relative viability (Nelarabine + Luminespib; first compound 0.1 µM) | relative viability (Nelarabine + Phenformin; first compound 0.1 µM)
NCI-H2228 | 1.39 | 1.13 | 1.46 | 0.494 | 0.182 | 0.156 | 0.161 | 0.151 | 0.434 | 0.244 | 0.345 | 0.293 | 1.04 | 0.538 | 0.599 | 0.937 | 0.792 |  | 
CAL-12T |  | 0.678 | 0.598 | 0.464 | 0.32 | 0.315 | 0.699 | 0.394 | 0.664 | 0.575 | 0.582 | 0.621 | 0.474 | 0.489 | 0.551 | 0.412 | 0.515 | 0.367 | 0.533
NCI-H1792 | 0.824 | 0.931 | 0.919 | 0.937 | 0.406 | 0.537 | 0.425 | 0.55 | 0.211 | 0.4 | 0.3 | 0.323 |  | 0.58 | 0.904 | 0.78 | 0.922 | 0.451 | 0.261
NCI-H2347 | 0.889 | 0.912 | 1.13 | 1.03 | 0.463 | 0.743 | 0.48 | 0.478 | 0.45 | 0.574 | 0.445 | 0.381 | 0.407 | 0.37 | 0.42 | 0.402 | 0.481 | 0.621 | 0.379
NCI-H3122 | 1.01 | 0.924 | 1.07 | 1.07 | 0.0966 | 0.11 | 0.12 | 0.115 | 0.381 | 0.356 | 0.412 | 0.358 | 0.194 | 0.145 |  | 0.201 | 0.207 |  | 
NCI-H1793 | 0.61 | 0.714 | 0.721 | 0.647 | 0.421 | 0.156 | 0.251 | 0.191 | 0.45 | 0.366 | 0.472 | 0.406 | 0.353 |  | 0.316 | 0.398 | 0.318 | 0.201 | 0.315
NCI-H358 | 0.355 | 0.429 | 0.46 | 0.431 | 0.409 |  | 0.308 | 0.309 | 0.441 | 0.308 | 0.356 | 0.377 | 0.121 | 0.136 | 0.129 | 0.127 | 0.139 | 0.28 | 0.305
HOP-62 | 1.14 | 1.23 | 1.04 | 1.11 | 1.19 | 0.736 | 1.1 | 0.961 | 0.787 | 0.508 | 0.777 | 0.667 | 0.567 | 0.49 | 0.496 | 0.419 | 0.485 | 1 | 0.696
NCI-H1944 | 0.765 | 0.709 | 0.908 | 0.783 | 0.925 | 0.775 | 0.73 | 0.745 | 0.209 | 0.195 | 0.195 | 0.203 | 0.367 | 0.267 | 0.343 | 0.362 | 0.316 | 0.793 | 0.229
NCI-H838 | 0.975 | 0.921 | 0.976 | 1.07 | 0.316 | 0.321 | 0.257 | 0.221 | 0.701 | 0.549 | 0.595 | 0.628 | 0.267 | 0.244 | 0.226 | 0.242 | 0.253 | 0.31 | 0.608
ABC-1 | 1.12 | 1.09 | 1.24 | 1.26 | 0.71 | 0.705 | 0.309 | 0.859 | 0.216 | 0.212 | 0.231 | 0.229 | 0.624 | 0.553 | 0.762 | 0.625 | 0.692 | 0.535 | 0.258
